Test results as given in patent publication US20210322339A1, “COMBINATION THERAPY OF COENZYME Q10 AND RADIATION FOR TREATMENT OF GLIOMA” (Berg LLC, priority 2019, published 2021).

Key:
[1] = test system: NHA (normal human astrocytes); test: Human co-culture U251/NHA, flow cytometry of superoxide in non-cancerous cells; format: cell-based; conditions: 0, 230 or 460 μM
Text: (§1) (A) Strategy of human co-culture experiments. In the human cell model, NHA (non-label) and U251 (GFP-labelled) cells are co-cultured in designated cell density. […] (C) Flow cytometric analysis (scatter plot) of GFP and superoxide for U251/NHA cocultures. Cell populations are characterized based by GFP intensity (GFP-negative, GFP-low, and GFP-high). […] (D) Quantification of cell percentages from (C) illustrating the increased number of GFP-low cells with increased dose. (E) Flow cytometric analysis of superoxide and DAPI for NHA-U251/NHA co-cultures treated with 0, 230, or 460 μM Coenzyme Q10.
(§2) We assessed the effects of Coenzyme Q10 on mitochondrial superoxide production in in vitro cocultures of glioma and non-cancerous cells, i.e. rodent C6 glioma, rodent NIH3T3 non-cancerous fibroblast cells, human U251 glioma, and primary human non-cancerous astrocytes.
(§3) In the human cell model, NHA (non-label) and U251 (GFP-labelled) cells were co-cultured at a designated cell density. Phase and fluorescent images of U251/NHA Co-cultures of U251/NHA cells were treated with 0 or 460 μM Coenzyme Q10 and detected by phase and fluorescent imaging. […] See FIG. 2 B. Cells were also analyzed by flow cytometric analysis (scatter plot) of GFP and superoxide for U251/NHA cocultures. […] Quantification of cell percentages illustrated the increased number of GFP-low cells with increased dose.

high-grade glioma = conditions: one patient, after 6 weeks in the study
Protocol: The patients in this study were administered a CoQ10-lipid conjugate in which oxidized CoQ10 was incorporated into a mixture of mitochondria compatible lipids, enabling delivery of supraphysiological concentrations of CoQ10 to the mitochondria.
This study was a phase I trial of Coenzyme Q10 to assess for safety and tolerability of Coenzyme Q10 with vitamin K in patients with HGGs that were progressive after a bevacizumab (BEV) containing regimen. […] Therefore, this study used 10 mg vitamin K prophylactically.
Design: Modified toxicity probability interval design (mTPI) enrolling patients sequentially and monitoring through a 28-day DLT period. 1 dose escalation and 2 dose de-escalations allowed.
Key Inclusion Criteria: HGG (GB, Gliosarcoma, AA, AO) sp radiation with TMZ in recurrence after treatment with BEV. Evidence of leptomeningeal spread was allowed. >18 w KPS>60. Normal coagulation labs.
Key Exclusion Criteria: History of spontaneous or tumor related intracerebral hemorrhage. Uncontrolled coagulopathies or use of anti-coagulants.

U251 glioma cells = test: Human co-culture U251/NHA, imaging and flow cytometry of GFP, superoxide and DAPI; format: cell-based
Text: as §1, §2
as §3, with “cocultures. Cell populations were characterized based by GFP intensity (GFP-negative, GFP-low, and GFP-high).” for “cocultures.”

[2] = test system: C6 glioma and NIH3T3 cells; test: Rodent co-culture of C6-GFP glioma and NIH3T3 cells, cell number and Mitosox superoxide by flow cytometry; format: cell-based
Protocol: FIGS. 2A-2F show differential induction of mitochondrial superoxide by Coenzyme Q10 in non-cancer vs. neoplastic cells. (A) Strategy of rodent co-culture experiments using glioma and non-tumor cells. The rodent cell co-culture consisted of fibroblastic NIH3T3 and glioma C6-GFP cells. (B) NIH3T3 and C6 cells were initially seeded in 1:1 ratio. After 72 h or 144 h incubation with Coenzyme Q10 (0 μM, […], 115 μM, 230 μM, […] or 460 μM), the number of C6 or NIH3T3 cells in co-culture is generated by flow-cytometry. (C) Images were taken at 72 hrs post-dosing (0 μM, 230 μM or 460 μM) using a Leica CTR5000. […] Percentage of cells harboring positive or negative level of superoxide from C6 (GFP+) or NIH3T3 (GFP−) population are recorded by flow cytometry (D) and presented as table of summary (E). […]
as §2
For the rodent cells, NIH3T3 and C6 cells were initially seeded in a 1:1 ratio. […] Superoxide level was detected by Mitosox staining. The percentage of cells harboring positive or negative levels of superoxide from C6 (GFP+) or NIH3T3 (GFP−) populations were determined by flow cytometry.

C6 cells = test: Implanted luciferase-labeled C6 glioma rat model with radiotherapy, survival; format: in vivo, Sprague Dawley rats
Protocol: Methodology: 1×10^6 luciferase labeled C6 cells were implanted into the right striatum of Sprague Dawley rats. 4 days post-implantation, 50 rats were randomized into one of four groups:
(i) Saline injection ip bid; (12 rats)
(ii) Coenzyme Q10 50 mg/kg ip bid to continue up to 35 days; (12 rats)
(iii) 12 Gy radiotherapy (RT) to be administered on Day 8 post-implant with saline injection (12 rats); and
(iv) Coenzyme Q10+RT (14 rats).
Tumor-bearing rats were monitored until death or Day 50.

C6 glioma cells = test: Orthotopic C6 glioma rat model, survival and MRI; format: in vivo, Wistar rats; conditions: long-term survivor, D27, D34, D102
Protocol: 10^6 C6 glioma cells were implanted into the right striatum of Wistar rats. Four days after implantation, animals started to receive saline (n=32) or 50 mg/kg of Coenzyme Q10 (n=21), twice a day, i.p. for 45 days. Surviving animals remained in the study until Day 102 (A) Kaplan-Meier survival curve of rats during 45 days of treatment. Over 25% of rats treated with Coenzyme Q10 survived 45 days, considered long-term survival in this model (p<0.01, log rank test). (B) Serial MRI images of a long-term survivor (D27, D34, D102). […] Far right panel is a coronal section of the long-term survivor.
10^6 C6 glioma cells were implanted into the right striatum of Wistar rats. Four days after implantation, animals started to receive saline (n=32) or 50 mg/kg of Coenzyme Q10 (n=21), twice a day, i.p. for 45 days. Surviving animals remained in the study until Day 102.

[3] = test system: recurrent high-grade gliomas; conditions: patients with recurrent high-grade gliomas; cited from earlier work

| Compound | superoxide values in GFP-negative (NHA) cells [1] | glucose uptake by FDG-PET in the area of prior surgery (high-grade glioma) | DAPI levels (U251 glioma cells; 0, 230 or 460 μM) | superoxide values in GFP-low and GFP-high cells (U251 glioma cells; 0, 230 or 460 μM) | glioma cell levels by phase and fluorescent imaging (U251 glioma cells; 460 μM, U251/NHA co-culture) | superoxide level of U251 glioma cells compared to human astrocytes upon treatment (U251 glioma cells; basal difference 1.5-fold) | percentage of GFP-low relative to GFP-high cells (U251 glioma cells; with increasing dose, flow cytometry) | dosage of peak effect of differences in superoxide levels and cell growth ([2]; C6/NIH3T3 co-culture) | induction of mitochondrial superoxide versus non-neoplastic cells ([2]; C6 and U251 cells exposed to Coenzyme Q10) | median survival (C6 cells; Coenzyme Q10 50 mg/kg ip bid up to 35 days, 12 Gy RT on Day 8, monitored to Day 50, p<0.001) [days] | Long Term Survivors (%) (C6 cells; survived for 45 days) | tumor size over time on serial MRI after treatment was withdrawn (C6 glioma cells) | response rates [3] |
| --- | --- | --- | --- | --- | --- | --- | --- | --- | --- | --- | --- | --- | --- |
| COC1=C(OC)C(=O)C(C/C=C(\C)CC/C=C(\C)CC/C=C(\C)CC/C=C(\C)CC/C=C(\C)CC/C=C(\C)CC/C=C(\C)CC/C=C(\C)CC/C=C(\C)CCC=C(C)C)=C(C)C1=O [Coenzyme Q10] | insignificant changes | decreased glucose uptake | only significantly elevated in GFP-low cells | increase in superoxide values | decreased glioma cell levels with a relative sparing of NHA cells | over 4 fold | increased percentage of GFP-low relative to GFP-high cells | 230 | significantly more induction of mitochondrial superoxide than non-neoplastic cells | 19 | 5/12 (42%) | continued shrinkage of the tumor over time |  |
| Bevacizumab: a monoclonal antibody against vascular endothelial growth factor (VEGF) |  |  |  |  |  |  |  |  |  |  |  |  | 32-62% |
